Counter-ions that a name gives are not always drawn.
How the values were obtained:
[1] = Permeation through and loading in human nail, Franz diffusion cell; format: in vitro ADME
Procedure: Permeation experiments were conducted using human nails to further validate iontophoretic delivery. In these experiments intact full thickness whole cadaver finger nail plates (˜0.5-0.7 mm thickness) were trimmed to appropriate disks and used. Prehydrated (in saline for 60 min) nail disks were sandwiched between the donor and receptor compartments of Franz diffusion cell (FDC) using a nail adaptor to conform to the curvature of the nail. Terbinafine hydrochloride (10 mg/mL) in water and Tween80 was used in the donor compartment, and acidified water used in the receptor. Current density of 0.5 mA/cm^2 was applied for 1 hr after which the receptor levels were measured for permeation of terbinafine hydrochloride through the nail using similar methods as described in Example 3B. Additionally, nail disks were analyzed (after 1 hr of iontophoresis or passive delivery) for drug in the nail using similar extraction methods as described as follows. […]
Permeation experiments were conducted using human nails as described in Example 4 but the effect of current duration was investigated. Current density of 0.5 mA/cm^2 was applied for either 15, 30, 45, or 60 minutes and the receptor levels analyzed for amount of terbinafine hydrochloride that permeated through the nail (μg/cm^2) immediately afterwards and compared to passively delivered nails.

[2] = Saturated solubility of terbinafine HCl in various solvents; format: physicochemical; conditions: thermodynamic from solid, n = 3
Procedure: In order to establish a suitable receiver fluid for use in permeation studies, the saturated solubility of terbinafine HCl at room temperature was determined in various solvents such as, water, phosphate buffered saline (PBS), PBS with 5% Tween-80 (PBS-T), citrate buffer and sodium phosphate buffer. The drug was added to each of the solvents until visual saturation was obtained and the mixtures were left at controlled temperature (19° C.) for 24 hours. The saturated drug solution was filtered and solubility of the drug was determined by UV spectrophotometer.

[3] = Effect of Tween-20 and Tween-80 on terbinafine HCl solubility in water and PBS; format: physicochemical; conditions: thermodynamic from solid, n = 3
Procedure: The influence of Tween-20 and Tween-80 on terbinafine HCl solubility in water and PBS was determined. The drug was added to each of the solvents until visual saturation was obtained, then left at controlled temperature (19° C.) or 24 hours. The saturated solutions were filtered and drug solubility in the filtrate was determined by UV spectrophotometer.

CN(C/C=C/C#CC(C)(C)C)Cc1cccc2ccccc12 [terbinafine HCl, (E)-N-(6,6-dimethyl-2-hepten-4-ynyl)-N-methyl-1-naphthylmethamine hydrochloride]
permeation through the nail and loading in the nail, iontophoresis versus passive ([1]; 10 mg/mL in water and Tween80, 0.5 mA/cm^2 for 1 hr): increases permeation through the nail and loading in the nail compared to passive delivery
iontophoretic permeation through the nail versus passive ([1]; 0.5 mA/cm^2 for 15, 30, 45, or 60 minutes): greater than passively delivered drug for all current durations tested
solubility at 24 h ([2]; aqueous buffer, Citrate buffer, pH 5, 19° C.): 1810 µg/mL
solubility at 24 h ([2]; aqueous buffer, PBS, pH 7.4, 19° C.): 1320 µg/mL
solubility at 24 h ([2]; aqueous with cosolvent or surfactant or cyclodextrin, PBS-T (PBS with 5% Tween-80), pH 6.8, 19° C.): 6020 µg/mL
solubility at 24 h ([2]; Distilled water, pH 5.8, 19° C.): 6370 µg/mL
solubility at 24 h ([3]; aqueous buffer, PBS, 19° C.): 1320 µg/mL
solubility at 24 h ([3]; aqueous with cosolvent or surfactant or cyclodextrin, PBS and 5% Tween-20, 19° C.): 5220 ± 20 µg/mL
solubility at 24 h ([3]; aqueous with cosolvent or surfactant or cyclodextrin, PBS and 5% Tween-80, 19° C.): 6530 ± 60 µg/mL
solubility at 24 h ([3]; aqueous with cosolvent or surfactant or cyclodextrin, Water and 5% Tween-20, 19° C.): 10600 ± 660 µg/mL
solubility at 24 h ([3]; aqueous with cosolvent or surfactant or cyclodextrin, Water and 5% Tween-80, 19° C.): 11500 ± 640 µg/mL
solubility at 24 h ([3]; Distilled water, 19° C.): 6370 ± 310 µg/mL
